# Assay results taken from US20050154046A1, “Methods of treating an inflammatory-related disease” (priority 2004, published 2005).
# “Also recorded” adds a separate entry of the source.
# Tests used:
# IL-6 = IL-6 secretion (ELISA) in LPS-stimulated THP-1 cells; type: cell-based, human
# Description: Standard IL-6 protein was used to establish a standard curve for the calculation of IL-6 in the medium secreted by the cells (LPS-stimulated or non-stimulated cells in the presence or absence of Meisoindigo).
# 1) Effects of Meisoindigo and NATURA on the expression/secretion of cytokines IL-1β, IL-6, IL-10: The human monocytic THP-1 cells grown exponentially were stimulated with or without 1 μM of lipopolysaccharide (LPS, Sigma), and exposed for 24 hours to different concentrations of Meisoindigo and NATURA (from 31.25 nM and 62.5 nM), respectively. Viability of cells was examined by trypan blue exception assay.
# IL-6 mRNA = experiment: IL-6 transcription (real time PCR) in LPS-stimulated THP-1 cells; type: cell-based, human; conditions: 1 μM, 1 μg/ml LPS, 24 h
# Description: Real Time PCR: The effect of Meisoindigo on the transcription of IL-6 (RNA levels) was determined by a technique of real time polymerase chain reaction (real time PCR). Total RNA was extracted using a Qiagen […] the HPRT gene was used as internal control. Human monocytic THP-1 cells at exponential growth phase were exposed to 1 μg/ml of LPS, 1 μM of Meisoindigo, or 1 μg/ml of LPS plus 1 μM of Meisoindigo for 24 hours. The cells were then harvested, washed and total RNA extracted for real time PCR assay. Total RNA (300 ng) was treated with DNase I (Promega, Madison, Wis.), and SuperScript II (Invitrogen, Carlsbad, Calif.) and oligo(dT) were used for reverse transcription according to the manufacturers' instructions. Real-time PCR reactions were performed in a 25-μL volume containing diluted cDNA, Sybr Green PCR Master Mix (Applied Biosystems), and 2.5 μM each IL-6 gene-specific primer: […] and […] An ABI SDS7700 analyzer (Applied Biosystems) was used at 50° C. for 2 minutes and 95° C. for 10 minutes, followed by 40 cycles at 95° C. for 15 seconds and 60° C. for 1 minute. Test cDNA results were normalized to HPRT internal control measured on the same plate. After cycling, the specificity of amplification was validated by the generation of a melting curve through slow denaturation of the PCR products and then by gel electrophoresis.
# IL-10 = IL-10 secretion (ELISA) in THP-1 cells; type: cell-based, human
# From the text: Viability of cells was examined by trypan blue exception assay.
# CDK2 = target: T1, CDK2 (Homo sapiens, UniProt P24941); experiment: Cyclin dependent kinase activity in THP-1 cells (immunoprecipitation, histone H1 phosphorylation); type: cell-based; conditions: 24 h
# T1 construct: endogenous in cells; host or cells: THP-1
# Description: 2) Effects of Meisoindigo and/or NATURA on activity of cyclin dependent kinases (CDK) in THP-1 cells (99): THP-1 cells grown exponentially were exposed to […] of Meisoindigo or NATURA for 24 hr, respectively.
# The cells were harvested, washed, and total proteins extracted as described previously (100). One hundred μg of the proteins were immuno-precipitated using antibodies against either cdk2, cdk4/6 or cyclin D1 overnight at 4° C. in the presence of a cocktail of protease inhibitors. The immuno-precipitates were washed 4 times with protein extraction buffer and once with kinase assay buffer, and reacted with […] histone H1 in the presence of [γ-^32P]-ATP (10 μCi/10 μM). The phosphorylated histone H1 (represent cdk activity) was measured by scintillation counting or by SDS-polyacrylaimde gel electrophoresis (101, 102).
# cyclin D1 = experiment: Cyclin D1 levels in THP-1 cells; type: cell-based, human; conditions: 31.25 and 62.5 nM, 24 h; data not shown
# THP-1 cells = experiment: Viability of THP-1 cells by trypan blue staining; type: cell-based, human; conditions: up to 8 μM
# Description: Methods: The cells were stimulated with or without […] of lipopolysaccharide (LPS, Sigma), and exposed for 24 hours to different concentrations of Meisoindigo (from 31.25 nM to 16,000 nM). Viability of cells was examined under microscope after trypan blue staining. Protein levels of IL-1β secreted into the culture media by the cells were then measured by ELISA and calculated from its standard curve using an assay Kit from R&D Systems according to instructions provided by the supplier. The method was established and validated by a good standard curve obtained.
# IL-15 = IL-15 real time PCR in LPS-stimulated THP-1 cells; type: cell-based, human; conditions: data not shown
# [1] = tested on: DSS-induced acute ulcerative colitis; experiment: DSS-induced acute ulcerative colitis in Balb/c mice; type: in vivo; conditions: 7 days
# From the text: Materials: […] A suspension of Meisoindigo was freshly prepared in 0.5% sodium methylcellulose and given orally for the animal tests described below. DSS (Dextran Sulfate Sodium salt, molecular weight: 36,000-44,000) was purchased from ICN Biomedicals. Other chemicals used in the following experiments were purchased from Sigma. Pathogen-free female Balb/c mice at 12 weeks of age with body weights from 22 to 25 grams were housed 5 per cage, and given, ad libitum, fresh tap water and commercial rodent pellets. Animal rooms were controlled at 24±2° C. with a relative humidity of 60±5% and a 12 hour light/dark cycle (07:00-19:00 hr). Induction of Acute Ulcerative Colitis DSS-induced colitis in Balb/c Mice: Colitis was induced by DSS in drinking water (MW 36,000-50,000, ICN biochemicals) as described previously (112). Briefly, the mice were randomly divided into 3 groups composed of 10 mice each. In the negative control group (Group 1), mice were given fresh tap water ad libitum and MF pellets, freshly changed twice a week, for 7 days. In the positive control group (DSS group, or Group 2), 5% DSS in tap water was given for 7 days to induce colitis, and the mice were fed with MF pellets. In the DSS-Meisoindigo group (test group or Group 3), mice were given 5% DSS drinking water and given Meisoindigo orally once a day at a dose of 50 mg/kg for 7 consecutive days. Fecal indications of colitis were recorded daily, including body weight and nature of feces (loose and/or bleeding or occult blood). Mice were then sacrificed. Colon tissues were taken, fixed in 10% formalin/PBS, and embedded in paraffin. To minimize physical artifacts, the removed colon was put onto a thick qualitative filter paper without stretching. The colon was then exposed inside out by cutting it longitudinally. The slides were stained with H&E and blindly examined histochemically by 3 technician/pathologists. All data was expressed as a mean±SD.
# [2] = 50 mg/kg orally once a day, 5% DSS
smiles,measurement,setting,value
CN1C(=O)/C(=C2/C(=O)Nc3ccccc32)c2ccccc21 [Meisoindigo],reduction of IL-6 secretion,"IL-6; 31.25 nM, LPS 1 μg/ml, THP-1 cells",Approximately 85%
same,"IL-6 (Inhibition), Percentage of Maximal Response Without Cytotoxicity","IL-6; LPS-stimulated THP-1 cells, LPS alone 100.00",83.51 ± 5.41%
same,effect on IL-6 production/secretion,"IL-6; as low as 31.25 nM (31.25 and 62.5 nM in FIG. 6), 24 h",significantly inhibit
same,LPS-induced IL-6 transcription,IL-6 mRNA,completely suppressed; also recorded: significantly inhibits
same,increase in the IL-10 secretion,"IL-10; 0.0625 μM, THP-1 cells",Approximately 60%
same,increase of IL-10 secretion at maximal stimulation,"IL-10; 62.5 nM, LPS-treated THP-1 cells, 24 h",approximately 2 fold
same,effect on IL-10 production,"IL-10; 31.25 and 62.5 nM, 24 h",promoted production
same,"IL-10 (Stimulation), Percentage of Maximal Response Without Cytotoxicity","IL-10; LPS-stimulated THP-1 cells, LPS alone −18.27",201.97 ± 11.2%
same,elevation of LPS-suppressed IL-10,"IL-10; similar concentrations (as low as 31.25 nM), FIG. 6A",~2 fold
same,partial inhibition of CDK activity,"CDK2; 1.5 μM, FIG. 6B",23%
same,inhibition of CDK2 activity,CDK2; 31.25 and 62.50 nM,failed to inhibit; also recorded: no inhibitory effect
same,effect on levels of cyclin D1,cyclin D1,failed to inhibit
same,cell deaths,THP-1 cells,no cell deaths were observed
same,inhibition on IL-15 (real time PCR),IL-15,moderate inhibition
same,reduction of the ulcerations versus positive control group,[1]; 50 mg/kg orally once a day,55%
same,animals with occult blood,[1]; [2],40%
same,other symptoms such as loose stool,[1]; [2],less severe than that of the control group
same,ulcerative damage of the colon (count under microscope),"[1]; 50 mg/kg orally, positive control 6.38±2.20",2.89±1.46
